{
  "source": "patent US20250255867A1",
  "about": "(Kadmon Corporation, LLC, priority 2022, published 2025)",
  "conditions": "Cohort 2 200 mg BID",
  "protocol": "All responses were assessed by the investigators.\nReported Adverse Events. […] All-cause mortality data collected during the study were assessed for all enrolled participants. Disease progression related death was not reported as AE.\nNumber of Participants With Treatment-emergent Adverse Events (TEAEs), and Treatment-emergent Serious Adverse Events (TESAEs). […] TEAEs included both SAEs and non-SAEs. […] Analysis was performed on safety population which included all participants who received at least 1 dose of study medication.",
  "data": [
    {"smiles": "CC(C)NC(=O)COc1cccc(-c2nc(Nc3ccc4[nH]ncc4c3)c3ccccc3n2)c1", "note": "[Belumosudil, 2-{3-[4-(1H-indazol-5-ylamino)-2-quinazolinyl]phenoxy}-N-(propan-2-yl) acetamide]", "values": [
      {"measurement": "Oedema: # Events", "result": 1},
      {"measurement": "Oedema: Affected/At Risk", "result": "1/16"},
      {"measurement": "Oedema: Affected/At Risk (%)", "result": "(6.25%)"},
      {"measurement": "Oesophageal ulcer: # Events", "result": 1},
      {"measurement": "Oesophageal ulcer: Affected/At Risk", "result": "1/16"},
      {"measurement": "Oesophageal ulcer: Affected/At Risk (%)", "result": "(6.25%)"},
      {"measurement": "Oral candidiasis: # Events", "result": 1},
      {"measurement": "Oral candidiasis: Affected/At Risk", "result": "1/16"},
      {"measurement": "Oral candidiasis: Affected/At Risk (%)", "result": "(6.25%)"},
      {"measurement": "Oropharyngeal pain: # Events", "result": 0},
      {"measurement": "Oropharyngeal pain: Affected/At Risk", "result": "0/16"},
      {"measurement": "Oropharyngeal pain: Affected/At Risk (%)", "result": "(0%)"},
      {"measurement": "Orthopnoea: # Events", "result": 0},
      {"measurement": "Orthopnoea: Affected/At Risk", "result": "0/16"},
      {"measurement": "Orthopnoea: Affected/At Risk (%)", "result": "(0%)"},
      {"measurement": "Osteonecrosis: # Events", "result": 0},
      {"measurement": "Osteonecrosis: Affected/At Risk", "result": "0/16"},
      {"measurement": "Osteonecrosis: Affected/At Risk (%)", "result": "(0%)"},
      {"measurement": "Osteopenia: # Events", "result": 1},
      {"measurement": "Osteopenia: Affected/At Risk", "result": "1/16"},
      {"measurement": "Osteopenia: Affected/At Risk (%)", "result": "(6.25%)"},
      {"measurement": "Osteoporosis: # Events", "result": 1},
      {"measurement": "Osteoporosis: Affected/At Risk", "result": "1/16"},
      {"measurement": "Osteoporosis: Affected/At Risk (%)", "result": "(6.25%)"},
      {"measurement": "Overdose: # Events", "result": 0},
      {"measurement": "Overdose: Affected/At Risk", "result": "0/16"},
      {"measurement": "Overdose: Affected/At Risk (%)", "result": "(0%)"},
      {"measurement": "Pain in extremity: # Events", "result": 3},
      {"measurement": "Pain in extremity: Affected/At Risk", "result": "2/16"},
      {"measurement": "Pain in extremity: Affected/At Risk (%)", "result": "(12.5%)"},
      {"measurement": "Pain: # Events", "result": 0},
      {"measurement": "Pain: Affected/At Risk", "result": "0/16"},
      {"measurement": "Pain: Affected/At Risk (%)", "result": "(0%)"},
      {"measurement": "Palpitations: # Events", "result": 0},
      {"measurement": "Palpitations: Affected/At Risk", "result": "0/16"},
      {"measurement": "Palpitations: Affected/At Risk (%)", "result": "(0%)"},
      {"measurement": "Paraesthesia: # Events", "result": 1},
      {"measurement": "Paraesthesia: Affected/At Risk", "result": "1/16"},
      {"measurement": "Paraesthesia: Affected/At Risk (%)", "result": "(6.25%)"},
      {"measurement": "Participants with TEAE", "result": "16 (100%) participants"},
      {"measurement": "Participants with TESAE", "result": "6 (38%) participants"},
      {"measurement": "Pericardial effusion: # Events", "result": 0},
      {"measurement": "Pericardial effusion: Affected/At Risk", "result": "0/16"},
      {"measurement": "Pericardial effusion: Affected/At Risk (%)", "result": "(0%)"},
      {"measurement": "Peripheral coldness: # Events", "result": 0},
      {"measurement": "Peripheral coldness: Affected/At Risk", "result": "0/16"},
      {"measurement": "Peripheral coldness: Affected/At Risk (%)", "result": "(0%)"},
      {"measurement": "Peripheral sensory neuropathy: # Events", "result": 1},
      {"measurement": "Peripheral sensory neuropathy: Affected/At Risk", "result": "1/16"},
      {"measurement": "Peripheral sensory neuropathy: Affected/At Risk (%)", "result": "(6.25%)"},
      {"measurement": "Phlebitis: # Events", "result": 1},
      {"measurement": "Phlebitis: Affected/At Risk", "result": "1/16"},
      {"measurement": "Phlebitis: Affected/At Risk (%)", "result": "(6.25%)"},
      {"measurement": "Photophobia: # Events", "result": 1},
      {"measurement": "Photophobia: Affected/At Risk", "result": "1/16"},
      {"measurement": "Photophobia: Affected/At Risk (%)", "result": "(6.25%)"},
      {"measurement": "Platelet count decreased: # Events", "result": 0},
      {"measurement": "Platelet count decreased: Affected/At Risk", "result": "0/16"},
      {"measurement": "Platelet count decreased: Affected/At Risk (%)", "result": "(0%)"},
      {"measurement": "Pleural effusion: # Events", "result": 0},
      {"measurement": "Pleural effusion: Affected/At Risk", "result": "0/16"},
      {"measurement": "Pleural effusion: Affected/At Risk (%)", "result": "(0%)"},
      {"measurement": "Pneumonia respiratory syncytial viral: # Events", "result": 1},
      {"measurement": "Pneumonia respiratory syncytial viral: Affected/At Risk", "result": "1/16"},
      {"measurement": "Pneumonia respiratory syncytial viral: Affected/At Risk (%)", "result": "(6.25%)"},
      {"measurement": "Pneumonia: # Events", "result": 3},
      {"measurement": "Pneumonia: Affected/At Risk", "result": "3/16"},
      {"measurement": "Pneumonia: Affected/At Risk (%)", "result": "(18.75%)"},
      {"measurement": "Pollakiuria: # Events", "result": 0},
      {"measurement": "Pollakiuria: Affected/At Risk", "result": "0/16"},
      {"measurement": "Pollakiuria: Affected/At Risk (%)", "result": "(0%)"},
      {"measurement": "Presyncope: # Events", "result": 3},
      {"measurement": "Presyncope: Affected/At Risk", "result": "3/16"},
      {"measurement": "Presyncope: Affected/At Risk (%)", "result": "(18.75%)"},
      {"measurement": "Productive cough: # Events", "result": 7},
      {"measurement": "Productive cough: Affected/At Risk", "result": "2/16"},
      {"measurement": "Productive cough: Affected/At Risk (%)", "result": "(12.5%)"},
      {"measurement": "Proteinuria: # Events", "result": 1},
      {"measurement": "Proteinuria: Affected/At Risk", "result": "1/16"},
      {"measurement": "Proteinuria: Affected/At Risk (%)", "result": "(6.25%)"},
      {"measurement": "Pruritus: # Events", "result": 4},
      {"measurement": "Pruritus: Affected/At Risk", "result": "2/16"},
      {"measurement": "Pruritus: Affected/At Risk (%)", "result": "(12.5%)"},
      {"measurement": "Pseudomonas infection: # Events", "result": 2},
      {"measurement": "Pseudomonas infection: Affected/At Risk", "result": "1/16"},
      {"measurement": "Pseudomonas infection: Affected/At Risk (%)", "result": "(6.25%)"},
      {"measurement": "Pulmonary mass: # Events", "result": 1},
      {"measurement": "Pulmonary mass: Affected/At Risk", "result": "1/16"},
      {"measurement": "Pulmonary mass: Affected/At Risk (%)", "result": "(6.25%)"},
      {"measurement": "Pyrexia: # Events", "result": 6},
      {"measurement": "Pyrexia: Affected/At Risk", "result": "3/16"},
      {"measurement": "Pyrexia: Affected/At Risk (%)", "result": "(18.75%)"},
      {"measurement": "Rash erythematous: # Events", "result": 1},
      {"measurement": "Rash erythematous: Affected/At Risk", "result": "1/16"},
      {"measurement": "Rash erythematous: Affected/At Risk (%)", "result": "(6.25%)"},
      {"measurement": "Rash maculo-papular: # Events", "result": 0},
      {"measurement": "Rash maculo-papular: Affected/At Risk", "result": "0/16"},
      {"measurement": "Rash maculo-papular: Affected/At Risk (%)", "result": "(0%)"},
      {"measurement": "Rash pustular: # Events", "result": 1},
      {"measurement": "Rash pustular: Affected/At Risk", "result": "1/16"},
      {"measurement": "Rash pustular: Affected/At Risk (%)", "result": "(6.25%)"},
      {"measurement": "Rash: # Events", "result": 1},
      {"measurement": "Rash: Affected/At Risk", "result": "1/16"},
      {"measurement": "Rash: Affected/At Risk (%)", "result": "(6.25%)"},
      {"measurement": "Red blood cells urine positive: # Events", "result": 1},
      {"measurement": "Red blood cells urine positive: Affected/At Risk", "result": "1/16"},
      {"measurement": "Red blood cells urine positive: Affected/At Risk (%)", "result": "(6.25%)"},
      {"measurement": "Renal failure: # Events", "result": 1},
      {"measurement": "Renal failure: Affected/At Risk", "result": "1/16"},
      {"measurement": "Renal failure: Affected/At Risk (%)", "result": "(6.25%)"},
      {"measurement": "Respiratory syncytial virus infection: # Events", "result": 1},
      {"measurement": "Respiratory syncytial virus infection: Affected/At Risk", "result": "1/16"},
      {"measurement": "Respiratory syncytial virus infection: Affected/At Risk (%)", "result": "(6.25%)"},
      {"measurement": "Respiratory tract infection fungal: # Events", "result": 0},
      {"measurement": "Respiratory tract infection fungal: Affected/At Risk", "result": "0/16"},
      {"measurement": "Respiratory tract infection fungal: Affected/At Risk (%)", "result": "(0%)"},
      {"measurement": "Respiratory tract infection: # Events", "result": 0},
      {"measurement": "Respiratory tract infection: Affected/At Risk", "result": "0/16"},
      {"measurement": "Respiratory tract infection: Affected/At Risk (%)", "result": "(0%)"},
      {"measurement": "Restless legs syndrome: # Events", "result": 1},
      {"measurement": "Restless legs syndrome: Affected/At Risk", "result": "1/16"},
      {"measurement": "Restless legs syndrome: Affected/At Risk (%)", "result": "(6.25%)"},
      {"measurement": "Rosacea: # Events", "result": 1},
      {"measurement": "Rosacea: Affected/At Risk", "result": "1/16"},
      {"measurement": "Rosacea: Affected/At Risk (%)", "result": "(6.25%)"},
      {"measurement": "SAE Abdominal wall haematoma, # events", "result": 0},
      {"measurement": "SAE Abdominal wall haematoma, affected/at risk", "result": "0/16"},
      {"measurement": "SAE Acute kidney injury, # events", "result": 1},
      {"measurement": "SAE Acute kidney injury, affected/at risk", "result": "1/16"},
      {"measurement": "SAE Acute lymphocytic leukaemia recurrent, # events", "result": 0},
      {"measurement": "SAE Acute lymphocytic leukaemia recurrent, affected/at risk", "result": "0/16"},
      {"measurement": "SAE Acute respiratory failure, # events", "result": 0},
      {"measurement": "SAE Acute respiratory failure, affected/at risk", "result": "0/16"},
      {"measurement": "SAE Anaphylactic reaction, # events", "result": 0},
      {"measurement": "SAE Anaphylactic reaction, affected/at risk", "result": "0/16"},
      {"measurement": "SAE Bacteraemia, # events", "result": 1},
      {"measurement": "SAE Bacteraemia, affected/at risk", "result": "1/16"}
    ]}
  ]
}
